# Measured values from ChEMBL document CHEMBL1201862, “PubChem BioAssay data set” (2004).
# Activity calls are given as the source filed them.
# Assays:
# [1] = target: Cytochrome P450 2D6 (Homo sapiens, UniProt P10635);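 note: CYP2D6 member of a cytochrome P450 panel assay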
# [2] = system: HeLa; experiment: ATP-based viability loss in HeLa cells – cell-based, CellTiter-Glo luminescence, cherry-pick samples, cytotoxicity control for MITF activator project, dose response (AID 540259); assay type: functional; settings: Homo sapiens
# [3] = target: Cytochrome P450 2C19 (Homo sapiens, UniProt P33261); experiment: Cytochrome panel assay with activity outcomes. Panel member name: p450-cyp2c19 Compounds with AC50 equal or less than 10 uM are considered active; assay type: functional
# Sequence of Cytochrome P450 2C19 (P33261 whole entry): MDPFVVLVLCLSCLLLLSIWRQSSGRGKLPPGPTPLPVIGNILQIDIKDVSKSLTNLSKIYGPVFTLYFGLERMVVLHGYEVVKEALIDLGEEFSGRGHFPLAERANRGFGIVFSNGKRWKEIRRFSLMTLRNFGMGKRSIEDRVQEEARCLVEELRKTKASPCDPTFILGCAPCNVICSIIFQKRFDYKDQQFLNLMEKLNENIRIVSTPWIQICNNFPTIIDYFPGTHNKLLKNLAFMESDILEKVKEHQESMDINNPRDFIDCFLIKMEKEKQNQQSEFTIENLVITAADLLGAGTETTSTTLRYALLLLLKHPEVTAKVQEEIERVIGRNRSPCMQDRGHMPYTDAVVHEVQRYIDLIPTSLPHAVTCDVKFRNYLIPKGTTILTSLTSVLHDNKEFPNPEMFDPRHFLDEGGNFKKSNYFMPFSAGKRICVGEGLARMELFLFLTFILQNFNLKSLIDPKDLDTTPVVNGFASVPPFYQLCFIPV
# [4] = target: T1, SUMO-activating enzyme (Homo sapiens, UniProt Q9UBT2); experiment: blockers of UBC9-mediated SUMO conjugation – biochemical, AlphaScreen, SUMOylation inhibitor project, confirmation (AID 2018); assay type: functional
# T1 sequence (Q9UBE0 whole entry): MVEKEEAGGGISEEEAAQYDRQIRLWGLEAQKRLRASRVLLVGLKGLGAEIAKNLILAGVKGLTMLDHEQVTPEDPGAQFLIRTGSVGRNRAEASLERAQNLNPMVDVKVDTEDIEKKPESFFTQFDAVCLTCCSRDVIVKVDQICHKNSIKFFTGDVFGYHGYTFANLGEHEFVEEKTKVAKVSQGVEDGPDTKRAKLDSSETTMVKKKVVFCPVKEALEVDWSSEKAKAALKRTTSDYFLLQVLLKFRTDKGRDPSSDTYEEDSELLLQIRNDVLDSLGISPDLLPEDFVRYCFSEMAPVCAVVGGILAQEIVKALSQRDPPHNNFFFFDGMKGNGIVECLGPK
# T1 sequence (Q9UBT2 whole entry): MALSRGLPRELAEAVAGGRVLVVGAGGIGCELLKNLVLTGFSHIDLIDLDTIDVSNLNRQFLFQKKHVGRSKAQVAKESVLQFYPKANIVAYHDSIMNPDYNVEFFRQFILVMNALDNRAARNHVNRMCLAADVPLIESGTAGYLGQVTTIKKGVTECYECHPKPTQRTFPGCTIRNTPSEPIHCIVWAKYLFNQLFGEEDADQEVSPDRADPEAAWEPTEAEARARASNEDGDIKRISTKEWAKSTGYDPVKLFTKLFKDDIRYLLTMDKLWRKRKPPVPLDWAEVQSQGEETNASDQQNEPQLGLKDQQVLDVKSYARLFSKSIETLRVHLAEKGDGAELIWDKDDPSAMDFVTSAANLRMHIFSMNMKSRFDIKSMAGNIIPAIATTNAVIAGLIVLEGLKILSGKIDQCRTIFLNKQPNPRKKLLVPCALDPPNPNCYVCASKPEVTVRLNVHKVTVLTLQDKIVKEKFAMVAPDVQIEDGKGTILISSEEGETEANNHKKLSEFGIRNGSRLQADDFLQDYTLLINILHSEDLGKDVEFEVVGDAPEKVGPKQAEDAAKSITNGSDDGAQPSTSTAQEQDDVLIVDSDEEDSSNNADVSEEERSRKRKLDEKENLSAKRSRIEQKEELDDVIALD
# [5] = target: T1, SUMO-activating enzyme; experiment: blockers of SAE1/SAE2–UBC9 SUMO transfer – biochemical, HTRF, uHTS, primary screen (AID 2006); assay type: protein-complex assay
# [6] = target: Alkaline phosphatase, placental type (Homo sapiens, UniProt P05187); experiment: human placental alkaline phosphatase inhibition – biochemical, luminescence, confirmation (AID 1512); assay type: functional
# Sequence of Alkaline phosphatase, placental type (P05187 whole entry): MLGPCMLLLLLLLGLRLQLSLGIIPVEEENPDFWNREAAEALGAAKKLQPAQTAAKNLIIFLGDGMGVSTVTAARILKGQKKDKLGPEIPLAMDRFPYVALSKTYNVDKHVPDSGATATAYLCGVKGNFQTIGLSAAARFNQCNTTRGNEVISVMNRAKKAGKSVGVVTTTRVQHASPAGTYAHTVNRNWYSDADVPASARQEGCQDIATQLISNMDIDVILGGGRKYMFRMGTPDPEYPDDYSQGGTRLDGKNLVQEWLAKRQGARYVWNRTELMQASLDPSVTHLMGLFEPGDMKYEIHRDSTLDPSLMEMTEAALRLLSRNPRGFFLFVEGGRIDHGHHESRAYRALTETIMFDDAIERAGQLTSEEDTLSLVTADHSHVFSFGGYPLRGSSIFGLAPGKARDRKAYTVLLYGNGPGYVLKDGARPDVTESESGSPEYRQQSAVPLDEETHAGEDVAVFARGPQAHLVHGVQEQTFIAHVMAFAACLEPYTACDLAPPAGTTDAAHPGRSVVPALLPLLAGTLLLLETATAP
# [7] = target: T2, Alkaline phosphatase, tissue-nonspecific isozyme (Homo sapiens, UniProt P05186); experiment: potency against alkaline phosphatase TNAP – biochemical, luminescent, dose response, SAR follow-up (AID 1056)
# T2 sequence (P05186 whole entry): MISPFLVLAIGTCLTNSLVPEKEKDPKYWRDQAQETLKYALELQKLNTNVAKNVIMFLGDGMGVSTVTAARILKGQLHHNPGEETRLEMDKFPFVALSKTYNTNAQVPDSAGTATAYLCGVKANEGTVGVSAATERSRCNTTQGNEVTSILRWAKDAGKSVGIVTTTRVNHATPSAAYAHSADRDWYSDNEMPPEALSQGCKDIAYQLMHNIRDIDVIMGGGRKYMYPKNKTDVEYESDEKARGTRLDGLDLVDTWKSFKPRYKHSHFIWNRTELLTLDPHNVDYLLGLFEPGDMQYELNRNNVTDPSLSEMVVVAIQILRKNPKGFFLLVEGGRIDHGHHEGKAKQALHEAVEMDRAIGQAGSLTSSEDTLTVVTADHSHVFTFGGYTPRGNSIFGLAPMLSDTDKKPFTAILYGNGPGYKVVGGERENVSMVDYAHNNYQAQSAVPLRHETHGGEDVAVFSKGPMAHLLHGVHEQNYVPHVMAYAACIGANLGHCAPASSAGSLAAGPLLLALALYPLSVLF
# [8] = target: T3, Histone-lysine N-methyltransferase NSD2 (Homo sapiens, UniProt O96028); assay type: biochemical
# T3 sequence (O96028 whole entry): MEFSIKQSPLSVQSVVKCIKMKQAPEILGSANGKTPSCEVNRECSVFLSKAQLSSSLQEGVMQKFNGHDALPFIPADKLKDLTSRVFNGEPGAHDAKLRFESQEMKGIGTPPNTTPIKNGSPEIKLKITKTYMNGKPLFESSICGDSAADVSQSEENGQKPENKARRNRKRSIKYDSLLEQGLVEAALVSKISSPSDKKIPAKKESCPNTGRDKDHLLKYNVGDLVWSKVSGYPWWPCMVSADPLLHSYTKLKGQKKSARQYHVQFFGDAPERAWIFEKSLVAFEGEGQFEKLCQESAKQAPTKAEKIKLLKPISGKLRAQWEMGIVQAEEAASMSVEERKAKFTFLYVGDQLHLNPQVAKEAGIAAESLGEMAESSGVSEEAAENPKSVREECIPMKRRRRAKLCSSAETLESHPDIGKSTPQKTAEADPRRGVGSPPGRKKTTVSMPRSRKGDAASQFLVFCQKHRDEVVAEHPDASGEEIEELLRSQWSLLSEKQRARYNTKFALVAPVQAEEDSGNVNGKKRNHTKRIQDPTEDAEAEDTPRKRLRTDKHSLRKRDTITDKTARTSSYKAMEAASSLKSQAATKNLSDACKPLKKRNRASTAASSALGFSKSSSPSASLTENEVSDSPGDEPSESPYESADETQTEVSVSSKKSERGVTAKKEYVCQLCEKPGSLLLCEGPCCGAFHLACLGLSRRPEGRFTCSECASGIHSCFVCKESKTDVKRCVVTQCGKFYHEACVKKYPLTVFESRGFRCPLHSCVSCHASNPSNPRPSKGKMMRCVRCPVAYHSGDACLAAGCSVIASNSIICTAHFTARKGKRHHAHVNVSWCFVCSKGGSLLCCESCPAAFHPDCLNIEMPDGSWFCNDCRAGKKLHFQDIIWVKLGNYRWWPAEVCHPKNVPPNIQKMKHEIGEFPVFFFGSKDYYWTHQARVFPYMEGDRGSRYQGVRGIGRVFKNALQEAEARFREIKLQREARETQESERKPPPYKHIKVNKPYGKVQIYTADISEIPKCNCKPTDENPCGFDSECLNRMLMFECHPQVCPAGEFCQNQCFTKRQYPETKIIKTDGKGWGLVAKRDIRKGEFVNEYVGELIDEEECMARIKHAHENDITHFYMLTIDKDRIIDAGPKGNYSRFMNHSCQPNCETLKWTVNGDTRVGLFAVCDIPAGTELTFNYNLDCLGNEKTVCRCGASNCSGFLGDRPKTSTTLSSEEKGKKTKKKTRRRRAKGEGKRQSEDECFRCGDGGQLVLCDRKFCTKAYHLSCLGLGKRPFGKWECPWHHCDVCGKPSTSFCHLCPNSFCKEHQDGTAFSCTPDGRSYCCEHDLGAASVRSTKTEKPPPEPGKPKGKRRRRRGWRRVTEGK
# [9] = target: Induced myeloid leukemia cell differentiation protein Mcl-1 (Homo sapiens, UniProt Q07820); assay type: functional
# Sequence of Induced myeloid leukemia cell differentiation protein Mcl-1 (Q07820 whole entry): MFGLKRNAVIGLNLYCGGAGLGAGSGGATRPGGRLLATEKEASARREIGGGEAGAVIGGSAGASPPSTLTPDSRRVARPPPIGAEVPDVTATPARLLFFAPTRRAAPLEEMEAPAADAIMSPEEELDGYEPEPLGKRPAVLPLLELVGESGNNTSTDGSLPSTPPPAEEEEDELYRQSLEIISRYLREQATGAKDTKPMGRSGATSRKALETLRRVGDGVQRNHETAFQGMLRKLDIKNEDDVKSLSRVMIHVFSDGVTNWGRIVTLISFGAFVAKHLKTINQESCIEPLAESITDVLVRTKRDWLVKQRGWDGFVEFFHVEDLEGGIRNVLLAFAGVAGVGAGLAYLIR
# [10] = Vero E6 cell cytotoxicity, dose response, cytotoxicity control for non-replicating M. tuberculosis project, secondary assay (AID 492998); assay type: functional, VeroE6; settings: Vero C1008
# [11] = cells; assay type: functional
# [12] = target: T4, Rac GTPase-activating protein 1 (Homo sapiens, UniProt Q9H0H5); experiment: blockers of MgcRacGAP-driven Rac1 GTP hydrolysis – biochemical, ADP Hunter fluorescence, primary and confirmatory, confirmation (AID 624330); assay type: functional
# T4 sequence (Q9H0H5 whole entry): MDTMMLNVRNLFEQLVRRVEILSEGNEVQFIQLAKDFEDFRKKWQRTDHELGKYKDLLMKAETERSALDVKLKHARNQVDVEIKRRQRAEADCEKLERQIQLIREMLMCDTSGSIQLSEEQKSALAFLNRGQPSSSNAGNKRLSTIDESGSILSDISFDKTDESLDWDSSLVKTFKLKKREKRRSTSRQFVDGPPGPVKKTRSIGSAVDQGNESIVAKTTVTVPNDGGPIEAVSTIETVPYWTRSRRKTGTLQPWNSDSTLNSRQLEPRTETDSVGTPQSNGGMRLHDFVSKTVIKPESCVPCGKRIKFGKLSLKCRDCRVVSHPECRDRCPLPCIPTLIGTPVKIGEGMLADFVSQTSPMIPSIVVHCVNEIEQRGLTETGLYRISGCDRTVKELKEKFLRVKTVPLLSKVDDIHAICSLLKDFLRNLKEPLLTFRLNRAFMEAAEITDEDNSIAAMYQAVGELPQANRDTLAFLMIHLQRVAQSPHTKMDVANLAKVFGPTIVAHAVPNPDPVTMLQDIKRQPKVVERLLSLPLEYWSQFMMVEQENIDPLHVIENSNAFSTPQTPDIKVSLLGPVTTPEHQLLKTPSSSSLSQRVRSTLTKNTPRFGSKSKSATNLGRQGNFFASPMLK
# [13] = target: T5, Cytochrome P450 1A2 (Homo sapiens, UniProt P05177);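 note: PubChem cytochrome P450 panel assay, CYP1A2 panel member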
# T5 sequence (P05177 whole entry): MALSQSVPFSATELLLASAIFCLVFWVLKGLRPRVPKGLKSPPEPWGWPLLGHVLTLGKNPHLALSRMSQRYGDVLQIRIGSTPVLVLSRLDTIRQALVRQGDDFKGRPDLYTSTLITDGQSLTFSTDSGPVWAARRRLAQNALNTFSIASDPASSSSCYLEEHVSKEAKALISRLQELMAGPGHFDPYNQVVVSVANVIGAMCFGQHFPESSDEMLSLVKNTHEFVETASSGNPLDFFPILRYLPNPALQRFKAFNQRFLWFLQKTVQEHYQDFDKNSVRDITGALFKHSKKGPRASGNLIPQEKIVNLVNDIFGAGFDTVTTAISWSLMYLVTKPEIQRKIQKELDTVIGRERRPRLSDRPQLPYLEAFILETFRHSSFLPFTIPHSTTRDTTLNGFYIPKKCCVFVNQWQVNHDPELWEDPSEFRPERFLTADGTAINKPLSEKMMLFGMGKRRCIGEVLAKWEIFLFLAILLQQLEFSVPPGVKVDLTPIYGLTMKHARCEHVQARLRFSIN
# [14] = target: Cytochrome P450 2C9 (Homo sapiens, UniProt P11712)
# Sequence of Cytochrome P450 2C9 (P11712 whole entry): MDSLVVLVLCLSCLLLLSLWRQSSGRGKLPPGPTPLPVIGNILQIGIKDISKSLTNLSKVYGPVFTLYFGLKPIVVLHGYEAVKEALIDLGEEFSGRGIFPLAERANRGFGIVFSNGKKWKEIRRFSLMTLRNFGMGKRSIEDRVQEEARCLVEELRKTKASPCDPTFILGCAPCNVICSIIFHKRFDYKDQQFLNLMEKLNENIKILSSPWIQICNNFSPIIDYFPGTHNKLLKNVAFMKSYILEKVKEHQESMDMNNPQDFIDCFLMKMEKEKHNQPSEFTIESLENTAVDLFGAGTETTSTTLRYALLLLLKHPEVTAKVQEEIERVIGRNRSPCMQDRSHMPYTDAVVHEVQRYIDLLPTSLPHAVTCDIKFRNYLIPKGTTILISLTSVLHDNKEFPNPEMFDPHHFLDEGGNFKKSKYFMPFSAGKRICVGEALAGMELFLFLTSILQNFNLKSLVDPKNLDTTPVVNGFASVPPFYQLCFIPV
# [15] = system: Streptococcus sp. 'group A'; experiment: Streptococcus pyogenes SK(-)GAS viability under kanamycin – luminescence, BacTiterGlo, confirmation, counter-screen for streptokinase expression inhibitor project, dose response (AID 1900); assay type: functional, organism-based
# [16] = target: T6, Streptokinase A (Streptococcus pyogenes serotype M1, UniProt P10520); experiment: viability-normalized secreted streptokinase activity reduction – plasminogen activation absorbance, OD405, dose response (AID 1914); assay type: functional, Streptococcus pyogenes M1 GAS;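 note: secreted streptokinase activity via plasminogen activation per viability signal from cell pellet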
# T6 sequence (P10520 whole entry): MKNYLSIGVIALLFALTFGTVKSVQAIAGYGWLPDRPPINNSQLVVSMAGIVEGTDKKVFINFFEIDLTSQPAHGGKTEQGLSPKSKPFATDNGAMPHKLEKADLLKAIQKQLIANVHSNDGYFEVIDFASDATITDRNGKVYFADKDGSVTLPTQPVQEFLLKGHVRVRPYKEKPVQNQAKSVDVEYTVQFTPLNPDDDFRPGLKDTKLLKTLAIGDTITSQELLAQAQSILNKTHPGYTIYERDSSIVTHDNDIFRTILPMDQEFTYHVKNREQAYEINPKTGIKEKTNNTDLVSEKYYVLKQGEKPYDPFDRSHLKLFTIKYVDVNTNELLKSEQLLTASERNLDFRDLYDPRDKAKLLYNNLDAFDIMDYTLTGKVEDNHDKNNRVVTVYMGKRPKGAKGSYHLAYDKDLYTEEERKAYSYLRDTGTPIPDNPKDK
# [17] = system: Streptococcus; experiment: GAS UMAA2166 growth inhibition – luminescence, BacTiterGlo, counter-screen for streptokinase expression inhibitor project, dose response (AID 1915); assay type: functional, organism-based;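 note: potency for reduction of bacterial viability or growth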
# [18] = THP-1 cell cytotoxicity, dose response, cytotoxicity control for non-replicating M. tuberculosis project (AID 489025); assay type: functional
# [19] = viability of uninfected HEp-2 cells – cell-based, HTS, cytotoxicity control for RSV inhibitor project, dose response (AID 2410); assay type: functional; settings: human respiratory syncytial virus
# [20] = system: Vero; experiment: cells; assay type: functional, cell-based; settings: Chlorocebus sabaeus
# [21] = cells
# [22] = target: T7, Microphthalmia-associated transcription factor (Homo sapiens, UniProt O75030); experiment: reducers of TRPM1 reporter luminescence, concentration series – cell-based, SK-MEL-5, cherry-picked, set 3, MITF inhibitor project, dose response (AID 493073); assay type: functional;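 note: SK-MEL-5 melanoma cells with luciferase driven by the MITF target TRPM1 promoter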
# T7 sequence (O75030 whole entry): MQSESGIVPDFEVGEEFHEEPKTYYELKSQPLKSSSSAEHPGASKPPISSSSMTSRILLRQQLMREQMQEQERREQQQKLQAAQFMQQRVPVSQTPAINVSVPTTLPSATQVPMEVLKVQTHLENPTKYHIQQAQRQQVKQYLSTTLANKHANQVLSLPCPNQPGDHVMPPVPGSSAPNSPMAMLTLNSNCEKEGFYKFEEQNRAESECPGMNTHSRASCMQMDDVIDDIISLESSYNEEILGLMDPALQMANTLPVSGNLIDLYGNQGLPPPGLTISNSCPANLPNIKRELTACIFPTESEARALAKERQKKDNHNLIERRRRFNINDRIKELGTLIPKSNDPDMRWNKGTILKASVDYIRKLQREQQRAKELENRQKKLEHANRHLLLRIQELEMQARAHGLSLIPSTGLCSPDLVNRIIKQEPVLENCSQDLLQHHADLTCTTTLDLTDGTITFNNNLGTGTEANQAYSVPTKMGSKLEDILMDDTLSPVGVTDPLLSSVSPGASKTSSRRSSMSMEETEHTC
# [23] = system: Vero; experiment: cells; assay type: functional; settings: Chlorocebus sabaeus
# Sequence of Cytochrome P450 2D6 (P10635 whole entry): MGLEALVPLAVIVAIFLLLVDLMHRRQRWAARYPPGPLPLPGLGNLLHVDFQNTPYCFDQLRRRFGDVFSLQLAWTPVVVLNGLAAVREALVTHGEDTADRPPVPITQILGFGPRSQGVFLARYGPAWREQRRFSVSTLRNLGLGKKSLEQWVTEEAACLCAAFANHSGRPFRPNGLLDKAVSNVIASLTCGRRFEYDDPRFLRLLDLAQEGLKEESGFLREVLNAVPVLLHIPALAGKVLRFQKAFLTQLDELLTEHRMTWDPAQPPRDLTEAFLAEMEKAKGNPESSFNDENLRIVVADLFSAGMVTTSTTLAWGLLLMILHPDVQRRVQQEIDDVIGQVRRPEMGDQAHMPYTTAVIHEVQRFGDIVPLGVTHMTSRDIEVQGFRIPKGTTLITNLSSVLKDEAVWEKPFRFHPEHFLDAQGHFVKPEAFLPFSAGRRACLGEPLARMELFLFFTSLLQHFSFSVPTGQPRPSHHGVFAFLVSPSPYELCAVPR
structure (smiles),measurement,setting,value
O=C(O)c1nn(-c2ccccc2)nc1-c1nn(-c2ccccc2)nc1C(=O)O,AC50,[1],inconclusive
CCNc1nc(N)nc(Oc2ccc(C(=O)OC)cc2)n1,AC50,[2],245 µM (active)
C[C@@H](c1ccccc1)N1C(=O)[C@H]2[C@@H]3[C@H](O)C=CC(=O)[C@H]3CC[C@H]2C1=O,AC50,[3],inconclusive
same,AC50,[1],inconclusive
COc1ccc(C(=O)Nc2ccc(-c3nnn(CC(=O)N4CCN(C(=O)c5ccco5)CC4)n3)cc2)cc1,IC50,[4],13 µM (active)
same,IC50,[5],30 µM (active)
NC(=O)c1ccc(-n2nnnc2SCC(=O)c2ccc(O)c(O)c2)cc1,IC50,[6],1.76 µM (active)
same,IC50,[7],3.48 µM (active)
same,AC50,[8],> 20 µM (inactive)
CCN(CC)c1ccc(NC(=O)CSc2nc(C3CC3)nc3ccccc23)cc1C,IC50,[4],7.43 µM (active)
same,IC50,[5],27 µM (active)
COc1cc(NCCC(=O)c2cccs2)c(OC)cc1Cl,IC50,[9],4.38 µM (not active)
same,CC50,[10],> 20 µM (active)
same,IC50,[11],8.46 µM (active)
same,IC50,[12],58.1 µM (active)
Cc1cc(C)nc(Nc2n[nH]c(-c3cccc4ccccc34)n2)n1,AC50,[3]; read-out: AC50,17.8 µM (inconclusive)
same,AC50,[1],inconclusive
COc1ccc(/C=N/C(CO)C(O)c2ccc([N+](=O)[O-])cc2)cc1 (configuration not stated),AC50,[13],20 µM (inconclusive)
same,AC50,[14],2.51 µM (inconclusive)
same,AC50,[1],inconclusive
CCCCCC/C(=N/O)c1ccccn1,EC50,[15],7.92 µM (active)
same,EC50,[16],> 150 µM (not active)
same,EC50,[17],40 µM (active)
same,CC50,[18],20.2 µM (active)
same,CC50,[10],15.2 µM (active)
same,IC50,[11],6.74 µM (active)
C/C(N)=C(/C#N)C(=O)COC(=O)c1cc(C)n(-c2ccc(F)cc2)c1C,CC50,[19],18.8 µM (active)
same,IC50,[20],8.93 µM (active)
same,IC50,[21],29.9 µM (active)
CCCN1CCC(NCc2cn(C)nc2-c2ccc(Oc3ccccc3)cc2)CC1,AC50,[22],8.35 µM (active)
same,IC50,[20],23.1 µM (active)
same,CC50,[23],> 25 µM (active)
